From PubChem BioAssay (NCI)
Where “and” joins values, the source holds several entries; their conditions need not be identical. Identical values can stand only once.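 Interpolation was linear, between the two tested concentrations surrounding the appropriate level; five concentrations were tested over 48 hours in 96-well plates. GI50: concentration for 50% inhibition of growth. TGI is the concentration that stops growth completely.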

Assays:
Experiment in all cases: NCI-60 cell line screen, 48 h
UACC-62 melanoma = tested on: UACC-62 melanoma
HCT-116 colon = tested on: HCT-116 colon
A498 renal = tested on: A498 renal
786-0 renal = tested on: 786-0 renal
KM12 colon = tested on: KM12 colon
SK-MEL-2 melanoma = tested on: SK-MEL-2 melanoma
HOP-92 NSCLC = tested on: HOP-92 NSCLC
SW-620 colon = tested on: SW-620 colon
MALME-3M melanoma = tested on: MALME-3M melanoma
OVCAR-8 ovarian = tested on: OVCAR-8 ovarian

| Compound | TGI (UACC-62 melanoma) | TGI (HCT-116 colon) | TGI (A498 renal) | TGI (786-0 renal) | TGI (KM12 colon) | TGI (SK-MEL-2 melanoma) | TGI (HOP-92 NSCLC) | TGI (SW-620 colon) | TGI (MALME-3M melanoma) | TGI (OVCAR-8 ovarian) | GI50 (UACC-62 melanoma) | GI50 (HCT-116 colon) | GI50 (A498 renal) | GI50 (786-0 renal) | GI50 (KM12 colon) | GI50 (SK-MEL-2 melanoma) | GI50 (HOP-92 NSCLC) | GI50 (SW-620 colon) | GI50 (MALME-3M melanoma) | GI50 (OVCAR-8 ovarian) |
| --- | --- | --- | --- | --- | --- | --- | --- | --- | --- | --- | --- | --- | --- | --- | --- | --- | --- | --- | --- | --- |
| O=Cc1c(O)c(C(=O)Nc2ccc3[nH]c(=O)[nH]c3c2)cc2ccccc12 | > 100 µM | > 100 µM | > 100 µM | > 100 µM | > 100 µM | > 100 µM | > 100 µM | > 100 µM | > 100 µM | > 100 µM |  |  |  |  |  |  |  |  |  |  |
| NC(N)=NS(=O)(=O)c1ccc(Nc2c3ccccc3nc3c(C(=O)Nc4ccc(S(N)(=O)=O)cc4)cccc23)cc1 | > 100 µM | > 100 µM | > 100 µM | > 100 µM | > 100 µM | > 100 µM | > 100 µM | > 100 µM | > 100 µM | > 100 µM |  |  |  |  |  |  |  |  |  |  |
| CC(C)(c1ccccc1)c1ccc(OC#N)cc1 | > 100 µM | > 65.7 µM | > 100 µM | > 100 µM | > 100 µM | > 100 µM | > 100 µM | > 100 µM | > 100 µM | > 100 µM |  |  |  |  |  |  |  |  |  |  |
| CCN(CC)c1ccc(N=Nc2ccc(-c3nc4ccc[n+](C)c4o3)cc2)cc1 | 22.6 µM | 16.3 µM | 35.9 µM | 23.7 µM | 24.5 µM | 25.5 µM | 33.4 µM | 16.2 µM | 4.31 µM | 18.8 µM |  |  |  |  |  |  |  |  |  |  |
| NCCCNCCCCNC(=O)C(O)NC(=O)CCCCCCN=C(N)N (centres undefined) | 750 µM and > 5000 µM | 750 µM and > 4790 µM | > 5000 µM | > 5000 µM | 619 µM and > 5000 µM | 750 µM and 3420 µM | 745 µM and > 4350 µM | > 5000 µM | 628 µM and 3050 µM | 750 µM and > 5000 µM | > 2860 µM | 1830 µM | 1500 µM | > 750 µM | 1360 µM | 2040 µM | 2660 µM | 1900 µM | 1920 µM | 2440 µM |
| C=C1CC2(OC1=O)C(=O)Nc1ccccc12 (centres undefined) | 6.76 µM | 10.5 µM | 19.4 µM | 6.64 µM | 27.2 µM | 30 µM | 2.75 µM | 3.22 µM | 2.64 µM | 11 µM | 2.23 µM | 3.16 µM | 5.91 µM | 2.39 µM | 10.4 µM | 13.4 µM | 1.28 µM | 1.38 µM | 1.24 µM | 2.91 µM |
| CN(C)c1ccc(/C=C/c2cc[n+](C)c(/C=C/c3ccc(N(C)C)cc3)c2)cc1 | 1.68 µM | 1.24 µM | 1.81 µM | 1.7 µM | 1.42 µM | 0.713 µM | 0.655 µM | 5.6 µM | 2.21 µM | 1.26 µM | 0.357 µM | 0.278 µM | 0.194 µM | 0.387 µM | 0.33 µM | 0.256 µM | 0.174 µM | 0.336 µM | 0.39 µM | 0.294 µM |
| COc1cc(C2CC(c3ccc(Nc4ccnc5cc(Cl)ccc45)cc3)=NN2c2ccc(Cl)cc2)cc(OC)c1OC (centres undefined) | 5.54 µM | > 100 µM | 50.6 µM | > 100 µM | > 100 µM | 6.6 µM | > 100 µM | > 100 µM | > 100 µM | > 100 µM | 1.17 µM | 3.08 µM | 1.66 µM | 2.88 µM | 1.67 µM | 2.35 µM | 1.64 µM | 2.55 µM | > 100 µM | 4.19 µM |
| COc1ccc2c(c1)C(=O)c1c-2n(CCCI)c(=O)c2cc([N+](=O)[O-])ccc12 | 0.851 µM and 1.35 µM | 1.02 µM and 1.94 µM | 3.6 µM and 0.95 µM |  | 50 µM and 46.6 µM | 47.2 µM and > 100 µM |  | 7.91 µM and 15.6 µM | 18.4 µM and 43.3 µM | 50 µM and > 100 µM | 0.109 µM and 0.149 µM | 0.0721 µM and 0.0453 µM | 0.609 µM and 0.157 µM | 0.106 µM and 0.0522 µM | 0.939 µM and 1.77 µM | 8.01 µM and 16.4 µM | 0.0738 µM and 0.715 µM | 0.0524 µM and 0.0345 µM | 1.36 µM and 2.85 µM | 0.266 µM and 0.338 µM |
| C[N+]1=C(/C=C\C=C\c2ccccc2)C(C)(C)c2ccccc21 | 4.98 µM | 13.2 µM | 11.3 µM | 10.7 µM | 10.8 µM | 4.31 µM | 6.77 µM | 4.08 µM | 4.37 µM | 10.5 µM | 1.65 µM | 3.3 µM | 3.08 µM | 3.19 µM | 3.15 µM | 1.69 µM | 2.35 µM | 1.38 µM | 1.87 µM | 2.11 µM |
| COC(=O)[C@@H](C)C[C@H](Cc1ccccc1)NC(=O)c1csc([C@@H](C[C@H](C(C)C)N(C)C(=O)[C@@H](NC(=O)[C@H]2CCCCN2C)C2CC2)OC(C)=O)n1 | > 16.5 µM | 0.011 µM |  | > 16.5 µM | > 16.5 µM |  | > 16.5 µM | > 16.5 µM |  | > 16.5 µM |  | 0.00043 µM and 0.00165 µM | 0.000862 µM | 0.000456 µM and 0.00165 µM | 0.000317 µM and 0.00165 µM | 0.000344 µM |  | 0.000292 µM and 0.00165 µM | 0.000312 µM | 0.000629 µM and 0.00165 µM |
| COc1cc(Nc2ncc(F)c(Nc3ccc4c(n3)N(COP(=O)(O)O)C(=O)C(C)(C)O4)n2)cc(OC)c1OC | 12 µM and > 10 µM | 23.5 µM and > 10 µM | 1.37 µM and 0.872 µM | 6.53 µM and 2.86 µM | 15.4 µM and > 10 µM | 53.3 µM and > 10 µM | 4.23 µM and 1.87 µM | > 84.4 µM | 17.8 µM and > 10 µM | 16.5 µM and > 10 µM | 2.1 µM and 1.64 µM | 3.25 µM and 3.02 µM | 0.356 µM and 0.221 µM | 1.32 µM and 0.858 µM | 0.498 µM and 0.409 µM | 5.81 µM | 1.25 µM and 0.345 µM | 3.6 µM and 3.98 µM | 3 µM and 5.93 µM | 3.33 µM and 3.07 µM |
| CCCCCCCc1cc2c3c(nc4ccccc42)C(=O)c2cccnc2-c3n1 | 10.1 µM | 3.35 µM | 17.5 µM | 10.5 µM | 3.11 µM | 27.2 µM | 17 µM | 6.34 µM | 10.9 µM | 16.6 µM | 5.41 µM | 0.375 µM | 6.46 µM | 5.1 µM | 1.45 µM | 12.3 µM | 6.34 µM | 1.5 µM | 5.07 µM | 5.41 µM |
| Cn1cc(-c2ccc(-c3ccc(C4=NC5(CC5)C(=O)N4C[C@@H]4CCN(C(=O)C5CC5)C4)cc3)cc2)cn1 | 34.5 µM | > 100 µM | 23.7 µM | > 100 µM | 32.1 µM | > 100 µM | > 100 µM | > 100 µM | 40.9 µM | > 100 µM | 10.2 µM | 11.7 µM | 2.16 µM | 10.5 µM | 5.39 µM | 24.8 µM | 23.6 µM | 18.2 µM | 18.6 µM | 19.4 µM |
| O=c1cccccc1[O-].O=c1cccccc1[O-].O=c1cccccc1[O-].[La+3] | 52 µM | 31.2 µM | 90.1 µM | 30.4 µM | > 100 µM | 48 µM | > 100 µM | > 100 µM | 31.9 µM | 51.5 µM |  |  | 23.6 µM |  |  |  |  |  |  |  |
| O=C(c1ccccc1)c1cn(/N=C\c2ccccc2)c(=O)nc1-c1ccccc1 | > 100 µM | > 100 µM | > 100 µM | > 100 µM | > 100 µM | > 100 µM | > 100 µM | > 100 µM | > 100 µM | > 100 µM |  |  |  |  |  |  |  |  |  |  |
| N#Cc1cccc(/C=N/N=C(\N)NO)c1 | 52.8 µM | > 100 µM | > 100 µM | > 100 µM | > 100 µM | > 100 µM | > 100 µM | > 100 µM | > 100 µM | > 100 µM |  |  |  |  |  |  |  |  |  |  |
| Cc1cnc(C(=O)NNc2nc3sc4c(c3c(=O)n2C)C(C)CCC4)cn1 (centres undefined) | 2.24 µM | 7.06 µM | 7.8 µM | 5.52 µM | 2.16 µM | 8.88 µM | 4.57 µM | 6.66 µM | 3.29 µM | 11.9 µM | 0.346 µM | 0.26 µM | 1.89 µM | 0.511 µM | 0.362 µM | 1.02 µM | 0.724 µM | 0.408 µM | 0.544 µM | 0.366 µM |
| Cc1ncc(C(=O)Nc2ccc(CN3CCN(C)CC3)c(C(F)(F)F)c2)cc1C#Cc1cnc(N)cc1C#N | 0.645 µM | 2.92 µM | 0.872 µM | 0.835 µM | 1.98 µM | 1.03 µM | 1.38 µM | 3.2 µM | 0.125 µM | 5.35 µM | 0.0518 µM | 0.182 µM | 0.24 µM | 0.38 µM | 0.00758 µM | 0.232 µM | 0.0911 µM | 0.802 µM | 0.0196 µM | 1.3 µM |
| CCCSS[C@H]1NC(=O)[C@H]1NC(=O)COc1ccccc1 | 32.1 µM | 22 µM | 70.3 µM | 31.5 µM | 31.6 µM | 33.5 µM | 24.4 µM | 18.2 µM | 26.9 µM | 27.6 µM |  |  |  |  |  |  |  |  |  |  |
